Data published in PMC11407758, “Integrated stress response (ISR) activation and apoptosis through HRI kinase by PG3 and other p53 pathway-restoring cancer therapeutics” (Oncotarget, 2024).
pIC50: −log10 of the molar value.

Legend:
[1] = test system: SW480 cells carrying a p53-responsive luciferase reporter; assay: p53-responsive reporter assay; format: cell-based, human; details: 1.11 μM, 6 hour and 15 hour time points
Protocol: SW480 cells carrying a p53-responsive luciferase reporter were used for assay of functional restoration of mutant p53. Cells were seeded in 96-well plates (5 × 10^4 cells/well) and were treated with compounds indicated for 6 and 15 h, respectively. Then, D-luciferin was added to each well with final concentration 100 μg/mL, and cells were imaged by using an IVIS Imaging System to detect luciferase activity.
p53-mutant SW480 human colon cancer cells, stably expressing a p53-responsive luciferase reporter, were used to assay functional restoration p53 pathway-dependent transcription in mutant p53-expressing tumor cells. Cells were seeded in 96-well plates (5 × 10^4 cells/well) and were treated with small-molecule compounds for 6 and 15 h, respectively. Then, D-luciferin was added to each well at a final concentration of 100 μg/mL, and cells were imaged by using an IVIS Imaging System (Xenogen) to detect luciferase activity.

[2] = test system: HFF-1 (human foreskin fibroblast cell with wild-type p53); assay: Cell viability assay (CellTiterGlo), HFF-1 normal cells; format: cell-based
Protocol: (§1) Figure 1 PG3 inhibits cell proliferation and growth in a p53-indepent manner. (A–E) Cell viability assay, dose response curves and IC50 value measurements in a panel of cancer cell lines and normal cells. Cells were treated with different concentrations of PG3, PG3-Oc (Oc), obatoclax (Ob), prodigiosin (P) or DMSO for 72 h. Luciferase activity was imaged by the IVIS Imaging System after treatment. Cell viability data were normalized to those of DMSO treatment control in each cell line and data analyses were performed using PRISM4 software. IC50 data are expressed as the mean ±SD (normal; n = 3).
as §1, with “2 p53-dependent inhibition of” for “1 PG3 inhibits”, “is only observed at specific concentrations. (A–J)” for “and growth in a p53-indepent manner. (A–E)”, “ZMC1, CP-313908, APR-246, Ellipticine, Nutalin-3a” for “PG3, PG3-Oc (Oc), obatoclax (Ob), prodigiosin (P)”
(§2) Cells were seeded in 96-well plates (6 × 10^3 cells/well). Cells were treated with different concentrations of compounds or dimethyl sulfoxide (DMSO) as a control for 72 hours. The cell viability was assessed by CellTiterGlo bioluminescent cell viability assay (Promega), following the manufacturer’s protocol. Bioluminescence imaging was measured using the IVIS imager. The percentage of cell viability (mean ± SEM) at each dose was calculated against the respective DMSO control. The IC50 values were determined from the sigmoidal dose-response curves using GraphPad Prism.

[3] = test system: ALAS1, UROD; assay: Western blot, heme biosynthesis enzymes; format: cell-based, human
Protocol: Figure 8 Inhibition of heme biosynthesis leads to upregulation of ATF4. (A) HT29 cells were treated with SA and ONC201 for 20 hours. Western blotting was performed using the indicated antibodies. (B) HT29 cells were transfected with siCtrl, siHRI, siClpX, siALAS1, siClpX/siALAS1 and siClpX/siALAS1/siHRI for 48 hours. (C) HT29 cells were transfected with siCtrl, siLonP1, siClpP for 24 or 48 hours respectively, and then treated with ONC201 for 24 hours. (D) Proposed model of ONC201-induced cell apoptosis through ClpP/ALAS1/HRI/ATF4 axis. (E, F) Silencing of ClpP in HCT116 p53^−/− and MDA-MB-468 cells and then treated with PG3, PG3-Oc and ONC201. Western blot was performed using indicated antibodies.
After treatment, protein lysates were collected for Western blot analysis. A total of 15 μg of protein was used for SDS-PAGE. After primary and secondary antibody incubations, the signal was detected by a chemiluminescence detection kit, imaged by Syngene (Imgen Technologies). Antibodies for NAG-1 (GDF15) and P53 were from Santa Cruz Biotechnology; for caspase 8, cleaved caspase 8, caspase 9, caspase 3, cleavage PARP, eIF2α, p-eIF2α (Ser51), CHOP, ATF4, DR5, and PUMA were from Cell Signaling Technology. Noxa and p21 were from Calbiochem. Ran was from BD Biosciences.
Supplementary Figure 2: ROS and NO are not responsible for PG3-induced HRI activation. (A, B) cells were pre-treated
with ZnPP, L-NMMA, SA and NAC for 2 hours respectively, and then ONC201 or PG3 was added to the medium for 24 hour treatment.
Western blot was performed using indicated antibodies.
(1 picture or pasted object on this page, not shown here)

[4] = test system: HCT116 (P53−/−); assay: Cell viability assay (CellTiterGlo), HCT116 p53-/-; format: cell-based, human; details: Homo sapiens, HCT-116; 72 h, CellTiterGlo
Protocol: as §1
as §1, with “2 p53-dependent inhibition of” for “1 PG3 inhibits”, “is only observed at specific concentrations. (A–J)” for “and growth in a p53-indepent manner. (A–E)”, “ZMC1, CP-313908, APR-246, Ellipticine, Nutalin-3a” for “PG3, PG3-Oc (Oc), obatoclax (Ob), prodigiosin (P)”
as §2

CCc1c(C)[nH]c(/C=C2\N=C(c3ccc[nH]3)C=C2OC)c1C [PG3] was tested, and the p53-responsive reporter activity [1] was “do not activate reporter activity”, the “fold less toxic than PG3-Oc” value ([2]; HFF-1 normal cells) was 3.4 fold and the pIC50 ([2]; Homo sapiens, HFF-1, 72 h, CellTiterGlo, normal cells, read-out: IC50 values, HFF-l (WT)) was 5.98. For the same compound, the ALAS1 protein level ([3]; 24 hour treatment) was “does not lead to the downregulation of ALAS1”, the UROD protein levels ([3]; western blot) was “do not have any effects” and the pIC50 [4] was 7.28.
